Source: ChEMBL document CHEMBL1137959, “Two new bacterial DNA primase inhibitors from the plant Polygonum cuspidatum” (Bioorg Med Chem Lett, 2004)

Tests used:
Nucleic Acid [1] = assay: Inhibitory activity against bacterial DNA primase in fluorescent intercalator dye displacement assay (FID); assay type: nucleic-acid assay, Escherichia coli
Nucleic Acid [2] = assay: Inhibitory activity against bacterial DNA primase; assay type: nucleic-acid assay, Escherichia coli

SMILES | IC50 (Nucleic Acid [1]) [µM] | IC50 (Nucleic Acid [2]) [µM]
O=C(O[C@@H]1[C@@H](Oc2cc(O)cc(/C=C/c3ccc(O)cc3)c2)O[C@@H](CO)[C@@H](O)[C@@H]1O)c1cc(O)c(O)c(O)c1 | 4 | 4
O=C(OC[C@@H]1O[C@H](Oc2cc(O)cc(/C=C/c3ccc(O)cc3)c2)[C@@H](O)[C@@H](O)[C@@H]1O)c1cc(O)c(O)c(O)c1 | – | 5
